Experimental findings from ChEMBL document CHEMBL1126693, “Long-chain-substituted uric acid and 5,6-diaminouracil derivatives as novel agents against free radical processes: synthesis and in vitro activity” (J Med Chem, 1993) are described below.

For series [1], the species on record is Bos taurus. In words: Antioxidant activity in bovine heart mitochondria using iron(II) / dihydroxy fumaric acid (DHF). Type of series: functional.
The nature of series [2]: Inhibition time for 20 uM during peroxidation of liposomal suspension of dilinoleoylphosphatidylcholine (DPLC) indicated by DMVN at 40 degree Centigrade.
Series [3] in a line: Inhibition time for 20 uM during peroxidation of methyl linoleate / DMVN in TBA /methanol medium at 40 degree Centigrade.
Series [4] in a line: Reducing activity to scavenge 10 uM 1, 1-diphenylpicrylhydrazyl (DPPH). Type of series: functional.
For series [5], the species on record is Bos taurus. In words: Tested for antioxidant activity using bovine heart mitochondria and iron(II) / dihydroxy fumaric acid (DHF) at 100 uM. Type of series: functional.
A short description of series [6]: Inhibition time for 20 uM during peroxidation of liposomal suspension of dilinoleoylphosphatidylcholine (DPLC) indicated by DMVN at 40 degree centigrade; inactive.
The nature of series [7]: Percent inhibition at 100 uM against peroxidation of methyl linoleate / DMVN in TBA /methanol medium at 40 degree Centigrade.
A short description of series [8]: Partition coefficient (logP). Type of series: physicochemical. Conditions: octanol/water.
A short description of series [9]: Inhibition against peroxidation of liposomal suspension of dilinoleoylphosphatidylcholine (DPLC) indicated by DMVN at 40 degree Centigrade.
A short description of series [10]: Inhibition time for 20 uM during peroxidation of methyl linoleate / DMVN in TBA /methanol medium at 40 degree centigrade; inactive.
A short description of series [11]: Reducing activity to scavenge 10 uM 1, 1-diphenylpicrylhydrazyl (DPPH); inactive. Type of series: functional.
The nature of series [12]: Percent inhibition at 100 uM against peroxidation of liposomal suspension of dilinoleoylphosphatidylcholine (DPLC) indicated by DMVN at 40 degree Centigrade.
The species named for series [13] is Bos taurus. In words: Tested for antioxidant activity using bovine heart mitochondria and iron(II) / dihydroxy fumaric acid (DHF). Type of series: functional.

SMILES strings stand for the structures. The source made the active and inactive calls. No cut-off for these calls is given here.

`CCCCCCCCCCCCCCCCNc1nc(O)nc(O)c1N`: half-maximal inhibition in series [1] (IC50) was put at 900 nM. Also, the results for the T inh in series [2] and in series [3] were 2020 s and 150 s, respectively. Moreover, the RC10 in series [4] amounted to 6.4 µM.

`Cc1c(C)c2c(c(C)c1O)CC[C@@](C)(CCC[C@H](C)CCC[C@H](C)CCCC(C)C)O2` had an inhibition in [5] of 46%. In addition, the T inh result in [6] was “inactive”. In addition, the T inh in series [3] was 190 s. This compound also registered an RC10 in [4] of 6 µM.

On to `Cn1c(=O)[nH]c2[nH]c(=O)[nH]c2c1=O`, for which the inhibition stood at 10% in series [5] and 13% in series [7]. Further, the RC10 in [4] is 4.5 µM.

`CCCCCCCCCCn1c(=O)[nH]c(=O)c2[nH]c(O)nc21` yielded a logP in series [8] of 2.04. Further, the values for the IC50 in [1] and in [9] were 3700 nM and 22000 nM, respectively. For the same compound, the inhibition in series [7] is 8%. In series [4], this compound yielded an RC10 of 3.5 µM.

With `CCCCCCCCCCCCn1c(N)c(N)c(=O)n(C)c1=O`, the IC50 in series [1] worked out at 240 nM. Further, the T inh in series [2] is 3150 s; in [3], 126 s. Further, the RC10 in series [4] was determined as 5 µM.

Regarding `CCCCCCCCCCCCCCCCn1c(O)nc2c(=O)[nH]c(=O)[nH]c21`, the figures for the IC50 in [1] and in [9] were 750 nM and 8000 nM, respectively. The inhibition in [7] was 10%. In series [4], this compound came in with an RC10 of 4.5 µM.

Consider `CCCCCCCCCCn1c(N)c(N)c(=O)[nH]c1=O`, for which, in [8], the logP came out at 3.04. Besides, in series [1], the IC50 came out at 280 nM. Also, the figures for the T inh in [2] and in series [3] were 3700 s and 114 s, respectively. Also, in series [4], the RC10 turned out to be 5.6 µM.

As for `CCCCCCCCCCCCNc1cc(O)nc(O)n1`, the inhibition in series [5] was found to be 2%. The T inh entry in series [6] and in [10] was “inactive” throughout. Moreover, the RC10 result in series [11] is “inactive”.

`CCCCCCCCCCCCn1c(=O)[nH]c(=O)c2[nH]c(O)nc21` displayed a logP in [8] of 2.9. The same compound registered a concentration for half-maximal inhibition (IC50) in series [1] of 1600 nM. The compound further showed an RC10 in series [4] of 3.2 µM.

Regarding `CCCCCCCCCCCCn1c(=O)n(C)c(=O)c2c1n(C)c(=O)n2C`, the values for the inhibition in [5], in series [12] and in series [7] were 5%, 0.5% and 0.7%, respectively. For the same compound, the RC10 entry in series [11] was “inactive”.

The compound `Cn1c(=O)[nH]c(=O)c2c1[nH]c(=O)n2C` came in with an inhibition in [5] of 5%. Besides, in [11], the RC10 entry is “inactive”.

In series [5], `Cn1c(=O)c2[nH]c(=O)[nH]c2n(C)c1=O` showed an inhibition of 36%. This compound also came in with an RC10 in [4] of 3.5 µM.

In [1], `CCCCCCCCCCCCNc1c(N)n(Cc2ccccc2)c(=O)[nH]c1=O` registered an IC50 of 670 nM. Moreover, in series [4], the RC10 was determined as 6.5 µM.

Turning to `CCCCCCn1c(=O)[nH]c(=O)c2[nH]c(O)nc21`, the logP in [8] is -0.02. In [5], this compound had an inhibition of 26%. Besides, the RC10 in series [4] was determined as 4.5 µM.

The compound `CCCCCCn1c(N)c(N)c(=O)[nH]c1=O` registered a logP in [8] of 1.01. In [13], the IC50 amounted to 3500 nM. Besides, the T inh in series [2] amounted to 2010 s; in series [3], 105 s. In [4], the RC10 was 6.5 µM.

On to `CCCCCCCCCCCCn1c(=O)n(C)c(=O)c2[nH]c(O)nc21`, for which the IC50 in series [1] is 850 nM; in [9], 18000 nM. Further, the inhibition in series [7] turned out to be 15%. The RC10 in series [4] was 3 µM.

For `CCCCCCCCCCCCn1c(=O)[nH]c2[nH]c(O)nc2c1=O`, the IC50 in [1] came out at 1250 nM; in series [9], 10000 nM. Moreover, the inhibition in series [7] was 25%. The RC10 in series [4] was 5.2 µM.

For `O=c1[nH]c(=O)c2[nH]c(=O)[nH]c2[nH]1` [URIC ACID], in series [8], the logP was -2.91.

In series [5], `Cn1c(=O)[nH]c2[nH]c(=O)n(C)c2c1=O` displayed an inhibition of 14%. Further, the RC10 in [4] is 14 µM.

`Cn1c(O)nc2[nH]c(=O)[nH]c(=O)c21` returned an inhibition in series [5] of 20%. The compound further returned an RC10 in [4] of 20 µM.

In series [5], `CCCCCCCCCCCCn1c(=O)cc(N)[nH]c1=O` came in with an inhibition of 1%.

In the case of `Oc1nc(O)c2nc(O)[nH]c2n1`, the inhibition in series [5] is 5%; in series [12], 0.5%; in series [7] it was 7%. In series [4], this compound had an RC10 of 4.5 µM.

`CCCCCCCCCCCCNc1c(N)nc(O)nc1O` registered an IC50 in series [1] of 570 nM. Moreover, the T inh was determined as 6000 s in [2] and 84 s in series [3]. The same compound had an RC10 in series [4] of 4.5 µM.

Compound `Cn1c(=O)[nH]c(N)c(N)c1=O` gave an IC50 in series [1] of 50000 nM. In [4], this compound gave an RC10 of 6 µM.

For `CCCCCCCCn1c(N)c(N)c(=O)[nH]c1=O`, the logP in series [8] was determined as 2.05. The same compound showed an IC50 in [1] of 620 nM. Moreover, the T inh amounted to 3350 s in series [2] and 114 s in series [3]. The compound further gave an RC10 in series [4] of 6.5 µM.

For `CCCCCCCCCCCCn1c(O)nc2c(=O)[nH]c(=O)[nH]c21`, the IC50 in series [1] turned out to be 1000 nM; in series [9] it was 11000 nM. For the same compound, in series [7], the inhibition was determined as 13%. The RC10 in series [4] is 6.2 µM.

`Nc1[nH]c(=O)[nH]c(=O)c1N`: the logP in [8] is -1.92. Also, the IC50 in [1] was found to be 100000 nM. In series [4], this compound gave an RC10 of 7 µM.

`Cc1c(C)c2c(c(C)c1O)CCC(C)(C(=O)O)O2` (centres undefined) [TROLOX] gave an IC50 in series [1] of 5000 nM. In addition, the T inh in [2] was 15000 s; in series [3], 195 s. The RC10 in [4] turned out to be 3.7 µM.

`CCCCCCCCCCCCn1c(N)c(N)c(=O)[nH]c1=O`: half-maximal inhibition in series [1] (IC50) was put at 270 nM. In addition, the T inh in series [2] was 3350 s; in series [3] it was 102 s. The RC10 in series [4] was 7 µM.

Regarding `Cn1c(=O)[nH]c2c(=O)[nH]c(=O)[nH]c21`, the inhibition in [5] was determined as 9%. Moreover, the RC10 in [4] stood at 5 µM.

Regarding `Cn1c(N)c(N)c(=O)[nH]c1=O`, the logP in series [8] was -1.4. Besides, the IC50 in [1] was 82000 nM. The T inh in [2] was determined as 800 s; in series [3], 156 s. The same compound gave an RC10 in [4] of 4.5 µM.

As for `Cn1c(=O)[nH]c(=O)c2[nH]c(O)nc21`, the inhibition in [5] was found to be 11%; in series [7], 10%. Further, the RC10 in series [4] was 3.5 µM.

In the case of `CCCCCCCCCCCCNc1nc(O)nc(O)c1N`, the IC50 in series [1] is 300 nM. Besides, the T inh in series [2] worked out at 3500 s; in series [3], 105 s. In addition, the RC10 in [4] is 6.4 µM.

As for `CCCCCCCCCCCCn1c(O)nc2[nH]c(=O)[nH]c(=O)c21`, the IC50 came to 1600 nM in series [1] and 200000 nM in [9]. The inhibition in series [7] was determined as 10%. This compound came in with an RC10 in series [4] of 27 µM.

On to `CCCCCCCCCCCCCCCCCCNc1[nH]c(=O)n(C)c(=O)c1N`, for which, in [1], the IC50 came out at 22000 nM. Moreover, the T inh in [2] worked out at 1750 s; in series [3] it was 114 s. This compound displayed an RC10 in series [4] of 6.2 µM.

Take `CCCCCCCCn1c(=O)[nH]c(=O)c2[nH]c(O)nc21`: in series [8], the logP stood at 1.1. Further, the IC50 is 28000 nM in series [1] and 37000 nM in series [9]. The compound further had an inhibition in series [7] of 15%. This compound returned an RC10 in [4] of 6.5 µM.

`CCCCCCCCCCCCn1c(=O)[nH]c(N)c(N)c1=O` returned an IC50 in series [1] of 260 nM. The T inh in series [2] was determined as 4200 s; in series [3], 144 s. The compound further gave an RC10 in series [4] of 5.5 µM.
